This note sets out measurements from patent US20100273700A1, “USE OF A PEPTIDE AS A THERAPEUTIC AGENT” (priority 2007, published 2010).

Structures are written as SMILES.

Data set [1] has as its system Human Peripheral Blood Mononuclear Cells (PBMC). Nature of the data set: B cell proliferation assay (SAC plus Interleukin-2, 3H-thymidine). Format: cell-based. The following applies: 10 micrograms per ml, 3H-thymidine incorporation.
The next data set has as its system TNF alpha. Nature of the data set: TNF alpha production assay (LPS-stimulated macrophages, ELISA). It counts as cell-based, human. The following applies: 10 micrograms per ml, lipopolysaccharide 200 ng/ml, overnight. From the text:
Not stimulated macrophages served as negative background control.
A general note: In an ELISA, binding on a coated surface is turned into a signal by an enzyme label.

The subject of a further data set is Interleukin-5 (IL-5). Nature of the data set: Th1/Th2 cytokine profiling assay: IL-5. The note with it: Ovalbumin-restimulated spleen cells; 10 micrograms per ml; 72 hours. Format: cell-based, Balb/c mice.
Data set [2] has as its system A549 cells. Nature of the data set: Apoptosis induction assay (Annexin-5). Format: cell-based, Human. The note with it: 24 hours exposure.
Method: Human A549 cells (carcinomic human alveolar basal epithelial cells) were utilized in the experiments employing the Annexin-5 apoptosis assay. […] Test peptide-micrograms per ml—were exposed for 24 hours to the A549 cells before they were analyzed for signs of apoptosis.
A further data set relates to HCMV strain AD169. Nature of the data set: HCMV plaque reduction assay. It counts as cell-based. The note with it: MRC-5 cells; peptide 10 micrograms per ml; 7-10 days. An excerpt: Ganciclovir was used as positive control.
Another data set deals with Interleukin-2 (IL-2). Nature of the data set: Th1/Th2 cytokine profiling assay: IL-2. It counts as cell-based, Balb/c mice. The note with it: Ovalbumin-restimulated spleen cells; 10 micrograms per ml; 72 hours.
The subject of a further data set is Streptococcus pneumoniae. Nature of the data set: Streptococcus pneumoniae assay. Format: cell-based. The following applies: peptide 10 micrograms per ml, read visually. An excerpt:
Results from Streptococcus pneumoniae assay:

For data set [3], the system named is Tumor Necrosis Factor-α (TNF-α). Nature of the data set: Th1/Th2 cytokine profiling assay: TNF-α. Format: cell-based, Balb/c mice. The note with it: Ovalbumin-restimulated spleen cells; 10 micrograms per ml; 72 hours.
From the text: (§1) The Balb/c mice (originated in 1923, it is a popular strain and is used in many different research disciplines. Also classified as an inbred from the production of 20 or more successive brother-sister matings, the Balb/c mouse is albino and small in size) were immunized on Days 1, 15, and 29 with Ovalbumin (Ovalbumin is the main protein found in egg white, commonly used to stimulate an immunological reaction in test animals) in PBS (5 micrograms/injection). On day 50, spleens of the mice were harvested (3 weeks after last boost with Ovalbumin). Cells were cultured (2×10^5/well in triplicate) and incubated with culture medium or test peptide—10 micrograms per ml—for 30 min. Thereafter, additional Ovalbumin was added to the cells at 10 micrograms/ml for in vitro restimulation of the cells. 72 hours later, cell supernatants were harvested and assayed using the Becton Dickinson Mouse Th1/Th2 Cytokine CBA Kit.
In data set [4] the test system is hepatitis B virus (HBV) ayw strain in HepG2-2.2.15 cells. Nature of the data set: HBV experimental assay system (secreted HBV DNA, TaqMan PCR). It counts as cell-based. The note with it: test peptide 10 micrograms per ml; six days; HBV DNA in supernatant. On the technique in general: Quantitative PCR measures a nucleic acid by following its amplification.
The subject of the next data set is MRSA. Nature of the data set: Methicillin Resistant Staphylococcus Aureus (MRSA) assay. Format: cell-based. The note with it: peptide 10 micrograms per ml, read visually.
In data set [5] the test system is Primary Human endothelial cells (HUVEC). Nature of the data set: Endothelial cell migration assay. Format: cell-based. The following applies: 10 micrograms per ml, 22 hours.
Data set [6] can be described thus: Cytotoxicity in the HBV assay (dye uptake cell viability). Format: cell-based. The following applies: human; HepG2-2.2.15 cells; test peptide 10 micrograms per ml; dye uptake assay (% cell control).
A short description of data set [7]: Cytotoxicity in the HIV-1 assay (MTS cell viability). The following applies: human, CEM-SS cells (uninfected, cells plus peptide only).
The subject of a further data set is CEM-SS cells. The data set is described as above. The note with it: CEM-SS cells plus peptide only; peptide 10 micrograms per ml; MTS.
In another data set the test system is HUVEC. Nature of the data set: Endothelial tube formation assay. The following applies: 10 micrograms per ml, 20 hours. It counts as cell-based, Human. An excerpt:
Positive control was vehicle only.

For data set [8], the system named is A549 cells. Nature of the data set: Apoptosis prevention assay (C2 ceramide, Annexin-5). Format: cell-based, Human. The following applies: A549 cells pretreated 30 min, 10 micrograms per ml.
In another data set the test system is RAW 264.7 cells. Nature of the data set: Phagocytosis assay (Fluorescein-labeled Escherichia coli). Format: cell-based, Mouse. The note with it: 10 micrograms per ml, flow cytometry. For orientation: Flow cytometry measures light scatter and fluorescence of single cells or particles in a stream.
For another data set, the system named is Interferon-γ (IFN-γ). Nature of the data set: Th1/Th2 cytokine profiling assay: IFN-γ. The note with it: Ovalbumin-restimulated spleen cells; 10 micrograms per ml; 72 hours. Format: cell-based, Balb/c mice.
Another data set deals with Pseudomonas aeruginosa. Nature of the data set: Pseudomonas aeruginosa assay. The note with it: peptide 10 micrograms per ml, read visually. Format: cell-based.
The test system of a further data set is Interleukin-4 (IL-4). Nature of the data set: Th1/Th2 cytokine profiling assay: IL-4. It counts as cell-based, Balb/c mice. The following applies: Ovalbumin-restimulated spleen cells; 10 micrograms per ml; 72 hours.
Data set [9] is described as follows: Cytotoxicity testing in MRC-5 cells (CellTiter 96). The following applies: human, MRC-5 cells (embryonal lung fibroblasts).
Data set [10] deals with Human Peripheral Blood Mononuclear Cells (PBMC). Nature of the data set: T cell proliferation assay (PHA, 3H-thymidine). It counts as cell-based. The following applies: 10 micrograms per ml, 3H-thymidine incorporation.
The test system of data set [11] is A549 cells. Nature of the data set: Propidium iodide cell cycle assay. It counts as cell-based, Human. The following applies: 10 micrograms per ml, 24 hours, FACS.

From the text for Interferon-γ (IFN-γ): as §1
From the text for Interleukin-2 (IL-2): as §1
From the text for Interleukin-4 (IL-4): as §1
From the text for Interleukin-5 (IL-5): as §1

As for `CC(C)C[C@H](NC(=O)[C@H](Cc1ccccc1)NC(=O)CNC(=O)CNC(=O)[C@@H](N)Cc1ccc(O)cc1)C(=O)N[C@@H](CCCNC(=N)N)C(=O)N[C@@H](CCCNC(=N)N)C(=O)N[C@@H](CCC(N)=O)C(=O)N[C@@H](Cc1ccccc1)C(=O)N[C@@H](CCCCN)C(=O)N[C@H](C(=O)N[C@H](C(=O)N[C@H](C(=O)O)[C@@H](C)O)C(C)C)C(C)C` [Dynorphin B], the “% of SAC/IL2 induced control” value in data set [1] amounted to 104.8%. Moreover, the “% of LPS induction” value in the data set with TNF alpha was 97.8%. The “IL-5 spleen cells; TH2 response (% of control)” value in the data set with Interleukin-5 (IL-5) is listed as 82.0 % of control. The “% of induction” value in the data set with A549 cells [2] was determined as 1.2%. Besides, in the data set with HCMV strain AD169, the “% plaque reduction” value came out at 1.0%. The “IL-2 spleen cells (% of control)” value in the data set on Interleukin-2 (IL-2) was 134.2 % of control. The % inhibition (in general, the percentage by which the read-out fell short of the control) in the data set on Streptococcus pneumoniae was 100.0%; in the data set with MRSA it was 0.0%; in the data set with Pseudomonas aeruginosa, 0.0%. For the same molecule, the “TNF-a spleen cells; TH1 response (% of control)” value in [3] was 105.2 % of control. In addition, in data set [4], the “% inhibition of HBV replication in HEP G2 cells” value was 45.7%. In [5], the “% inhibition of migration” value is 57%. Moreover, the viability – broadly, the share of living cells, or the viability signal relative to a control – at 144 h, 10 micrograms per ml in data set [6] was 89.7%. Also, the viability at 10 micrograms per ml in data set [7] was determined as 37%. Also, the “% Cell viability” value with CEM-SS cells is “toxic”. The “% inhibition of tube formation” value with HUVEC is 11%. Besides, the “% prevention of ceramide induced apoptosis” value with A549 cells [8] stood at 0.0%. In addition, the “% of control phagocytosis” value with RAW 264.7 cells is recorded as 102.9%. Also, in the data set with Interferon-γ (IFN-γ), the “IFNγ spleen cells; TH1 response (% of control)” value is 73.9 % of control. In addition, in the data set with Interleukin-4 (IL-4), the “IL-4 spleen cells; TH2 response (% of control)” value is listed as 208.2 % of control. For the same molecule, the viability at 144 h in [9] was 100%. Further, in [10], the “% of PHA induced control” value is reported as 107.1%. The “Cell cycle analysis G0/G1” value in the data set with A549 cells [11] is reported as 59.5. Moreover, in the data set with A549 cells [11], the “Cell cycle analysis G2/M” value is listed as 8.3. In the data set with A549 cells [11], the “Cell cycle analysis S” value amounted to 32.2.
Turning to `Cc1cn([C@H]2C[C@H](N=[N+]=[N-])[C@@H](CO)O2)c(=O)[nH]c1=O` [AZT, reference compound], the “% Cell viability” value in the data set on CEM-SS cells came to 97%.
